Converted amounts (≈) assume the structure as drawn.

For the data set the following is noted: buffer; pH 7.4; 200.0 µM.
Regarding `CC1(C)CC(=O)C=C(Nc2ccc(Cl)c(Br)c2)C1`, the solubility (kinetic) (usually the concentration staying in solution when a stock, usually in DMSO, is diluted into the medium) amounted to 8.5 µg/mL (≈ 25.9 µM).
Next, `Cc1cc(C)cc(C(=O)NCC(=O)OCC(=O)NC2CC2)c1`: > 45.7 µg/mL; `Cc1ccc(N2C(=O)C3CCC(C)(C2=O)C3(C)C)cc1C` (stereo not drawn): 32.3 µg/mL (≈ 113 µM).
With `O=C(/C=C/c1cccs1)Nc1nccs1` the figure was 0.7 µg/mL (≈ 2.96 µM); with `CCc1nonc1NC(=O)c1oc2ccc(F)cc2c1C`, 0.3 µg/mL (≈ 1.04 µM).
Next, `C=CCn1c(O)c(C(CC)=Nc2ccc(C(=O)O)cc2)c(=O)[nH]c1=O`: > 51.5 µg/mL; `CC(C)OCCCNC(=O)C1CC(=O)N(CCc2ccccc2)C1` (stereo not drawn): 48.9 µg/mL (≈ 147 µM).
Consider `O=C(Nc1nccs1)C1CC(=O)N(c2ccc(Cl)cc2)C1` (stereo not drawn), for which the kinetic solubility was 4.1 µg/mL (≈ 12.7 µM).
Next, `CC1CCC(NC(=O)CSc2nncn2C)CC1` (stereo not drawn): > 40.3 µg/mL; `COc1cc2ncnc(NCc3ccc4c(c3)OCO4)c2cc1OC`: 3.3 µg/mL (≈ 9.72 µM).
With `CCOC(=O)c1nc(Nc2cccc(C)c2)c2ccccc2n1` the figure was 10.8 µg/mL (≈ 35.1 µM); with `CCC(C)C12CN3CCN(CC(C)(C3)C1O)C2` (stereo not drawn), > 35.8 µg/mL.
`O=C(NCCCN1CCCC1)Nc1ccccc1[N+](=O)[O-]`: the kinetic solubility was > 43.9 µg/mL.
Next, `CN(Cc1ccccc1)C(=O)CN1CCCC1=O`: > 36.9 µg/mL; `CC(=O)C1=C(C)NC2=C(C(=O)c3ccccc32)C1c1ccccc1` (stereo not drawn): 0.8 µg/mL (≈ 2.54 µM).
With `CCNc1nc(Cl)nc(NC2CCCCC2)n1` the figure was 18.4 µg/mL (≈ 71.9 µM).
As to `CC(NC(=O)COC(=O)c1nc(Cl)ccc1Cl)c1ccccc1` (stereo not drawn), the solubility (kinetic) is > 53 µg/mL.
Compound `CCN1CCN(CCC(=O)Nc2cccc(C)c2)CC1.Cl` displayed a solubility (kinetic) of 46.4 µg/mL.
With `O=c1[nH]c2ccccc2nc1NCc1ccccc1` the figure was 3.9 µg/mL (≈ 15.5 µM).
With `Cc1nccn1CCOc1ccccc1Cl` the figure was 33.2 µg/mL (≈ 140 µM).
For `O=C(Nc1ccccc1Cl)Nc1cccnc1Cl`, the solubility (kinetic) was determined as 2.8 µg/mL (≈ 9.92 µM).
In turn, `Cc1ccc(C(=O)Cc2nc3ccccc3[nH]2)cc1` came in with a kinetic solubility of 30.5 µg/mL (≈ 122 µM).
Regarding `CC(Oc1ccc(Cl)cc1)C(=O)Nc1ccccc1N1CCOCC1` (stereo not drawn), the kinetic solubility was found to be 10.1 µg/mL (≈ 28 µM).
For `Cc1nnc(SCC(=O)N(C)CC(=O)Nc2ccccc2Cl)s1`, the kinetic solubility was > 55.6 µg/mL.
With `S=C(NCCc1c[nH]c2ccccc12)NC1CCCCC1` the figure was 2.8 µg/mL (≈ 9.29 µM); with `CSc1nc2c(cc1C#N)CCC2`, 5.1 µg/mL (≈ 26.8 µM).
`O=C1c2ccccc2NC(c2cccc(O)c2)N1Cc1ccco1` (stereo not drawn): the kinetic solubility was > 48.1 µg/mL.
With `Cc1ccc(NC(=O)N(CCC#N)Cc2ccccc2)cc1` the figure was > 44 µg/mL.
With `Cc1cccc(NC(=O)CSc2ncnc3sc(C)cc23)c1` the figure was 0.7 µg/mL (≈ 2.12 µM); with `CS(=O)(=O)N(CC(=O)N1CCCC1)Cc1ccccc1`, > 44.5 µg/mL.
With `COc1cc(OC)c(OC)cc1CNCCNC(=O)c1ccco1` the figure was 44.5 µg/mL (≈ 133 µM).
In turn, `Cc1nc(Cl)c(C(=O)Nc2cccc(F)c2)c(C)c1Cl` yielded a solubility (kinetic) of 4.9 µg/mL (≈ 15.6 µM).
Next, `O=C(CC(=O)Nc1cccnc1)Nc1cccnc1`: > 38.4 µg/mL; `O=C(COC(=O)c1ccc2c(c1)OCO2)Nc1ccccc1OC(F)F`: 3.7 µg/mL (≈ 10.1 µM).
Next, `CCc1nc(N[C@H](C(=O)O)C(C)C)c2oc3ccccc3c2n1`: > 47 µg/mL; `CCN(C(=O)COC(=O)c1ccccc1O)c1nc2ccccc2s1`: 2.4 µg/mL (≈ 6.73 µM); `O=C(CCNC(=O)c1ccccc1Cl)Nc1nc2ccccc2[nH]1`: 4.9 µg/mL (≈ 14.3 µM).
With `O=C1C=C(Nc2ccc(F)cc2)c2ccccc2C1=O` the figure was < 0.6 µg/mL; with `O=C(CSc1nc2ccccc2c(=O)n1-c1ccccc1F)NC1CC1`, > 55.4 µg/mL; with `O=C(Nc1ccccc1)Nc1ccc(Nc2ccccc2)cc1`, < 0.2 µg/mL.
`O=C(N/C(=C\c1ccco1)C(=O)N1CCCC1)c1ccccc1` showed a solubility (kinetic) of 41.6 µg/mL (≈ 134 µM).
Next, `CC1=C(C)C(O)N(Cc2ccccc2)C1=O` (stereo not drawn): > 32.6 µg/mL.
Next, `COc1cc(CO)ccc1Oc1nc2ccccc2n2cnnc12`: > 48.3 µg/mL.

The values are drawn from PubChem BioAssay AID1996.
